Measured values taken from US8344028B2, “Gamma-amino-butyric acid derivatives as GABAB receptor ligands” (XenoPort, Inc., priority 2009, dated 2013).

What was measured:
Format in all cases: cell-based
[1] = target: T1, recombinant human GABABR1a2 (Homo sapiens, UniProt Q9UBS5); assay: Ca2+ assay for determining GABAB receptor agonist activity; settings: cells expressing recombinant human GABABR1a2
T1 construct: expressed in transfected cells; host or cells: HEK cells

[2] = target: T1, recombinant human GABABR1a2; assay: cAMP assay for determining GABAB receptor agonist activity; settings: cells expressing recombinant human GABABR1a2; read-out: cAMP EC50
GABAB receptor = GABAB receptor (Homo sapiens, UniProt Q9UBS5); assay: GABAB receptor agonist or partial agonist activity by binding, electrophysiology, cAMP and/or Ca2+ assay methods (Examples 83-86)
GABAB receptor, sequence (Q9UBS5 20-961): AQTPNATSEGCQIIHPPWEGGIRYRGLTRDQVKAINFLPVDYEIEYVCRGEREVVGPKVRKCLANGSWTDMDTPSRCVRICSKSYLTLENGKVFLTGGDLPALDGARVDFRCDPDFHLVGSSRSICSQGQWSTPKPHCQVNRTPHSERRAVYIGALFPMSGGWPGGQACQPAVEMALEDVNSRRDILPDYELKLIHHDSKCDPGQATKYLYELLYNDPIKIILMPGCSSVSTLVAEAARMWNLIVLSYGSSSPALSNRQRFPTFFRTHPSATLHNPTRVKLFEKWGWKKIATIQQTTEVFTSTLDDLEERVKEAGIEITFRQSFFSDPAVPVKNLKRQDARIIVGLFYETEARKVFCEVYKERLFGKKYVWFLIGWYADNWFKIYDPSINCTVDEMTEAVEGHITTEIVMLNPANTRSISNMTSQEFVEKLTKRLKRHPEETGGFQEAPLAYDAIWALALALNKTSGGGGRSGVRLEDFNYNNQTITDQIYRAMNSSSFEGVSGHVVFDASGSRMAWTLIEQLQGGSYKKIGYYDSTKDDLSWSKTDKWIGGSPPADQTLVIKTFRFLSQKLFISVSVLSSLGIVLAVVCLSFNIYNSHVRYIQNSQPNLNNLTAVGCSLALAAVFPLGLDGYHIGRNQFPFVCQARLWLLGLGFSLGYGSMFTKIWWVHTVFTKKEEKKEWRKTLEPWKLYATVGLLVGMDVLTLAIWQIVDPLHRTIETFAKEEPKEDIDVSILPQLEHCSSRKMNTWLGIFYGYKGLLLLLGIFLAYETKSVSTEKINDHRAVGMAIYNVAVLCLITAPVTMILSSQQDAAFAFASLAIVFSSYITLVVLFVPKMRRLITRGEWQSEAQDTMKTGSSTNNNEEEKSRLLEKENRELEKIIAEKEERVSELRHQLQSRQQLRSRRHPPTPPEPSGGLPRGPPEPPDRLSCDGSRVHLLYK
GABAB receptor, sequence (O75899 42-941 partner): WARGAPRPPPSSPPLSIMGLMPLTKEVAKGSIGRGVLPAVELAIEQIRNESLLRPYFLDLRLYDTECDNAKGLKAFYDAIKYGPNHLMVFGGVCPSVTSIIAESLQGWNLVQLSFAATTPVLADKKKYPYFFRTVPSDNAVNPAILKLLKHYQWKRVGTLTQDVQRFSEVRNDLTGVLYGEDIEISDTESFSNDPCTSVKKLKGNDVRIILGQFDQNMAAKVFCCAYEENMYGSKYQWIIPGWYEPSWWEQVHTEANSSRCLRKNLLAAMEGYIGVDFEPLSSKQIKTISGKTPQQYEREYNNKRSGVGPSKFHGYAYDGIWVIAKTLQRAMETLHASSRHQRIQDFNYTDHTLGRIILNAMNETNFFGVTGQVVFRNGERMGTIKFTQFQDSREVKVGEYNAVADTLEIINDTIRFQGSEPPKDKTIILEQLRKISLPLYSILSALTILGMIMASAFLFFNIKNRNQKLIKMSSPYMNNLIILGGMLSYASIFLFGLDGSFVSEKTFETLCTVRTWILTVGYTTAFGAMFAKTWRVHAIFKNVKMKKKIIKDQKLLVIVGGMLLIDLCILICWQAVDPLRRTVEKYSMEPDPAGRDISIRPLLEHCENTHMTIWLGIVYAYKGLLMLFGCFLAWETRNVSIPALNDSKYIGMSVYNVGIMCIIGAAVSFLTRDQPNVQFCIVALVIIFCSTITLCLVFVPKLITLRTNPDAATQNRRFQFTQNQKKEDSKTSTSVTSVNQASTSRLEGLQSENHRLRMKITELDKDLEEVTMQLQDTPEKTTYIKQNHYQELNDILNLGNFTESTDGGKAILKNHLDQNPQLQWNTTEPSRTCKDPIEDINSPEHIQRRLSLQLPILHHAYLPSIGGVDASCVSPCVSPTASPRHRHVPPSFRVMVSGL
Method in brief: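 Binding: rat cortex membranes in 50 mM Tris pH 7.4 with 100 μM isoguvacine were preincubated 10 min at RT with compound, then radiolabeled CGP54626 (1-10 nM) was added; filtered and scintillation-counted. cAMP: GABAB R1a2 HEK cells, 1 h RT with 100 μM forskolin, chemiluminescence.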

T1 sequence (Q9UBS5 15-961 limits assumed): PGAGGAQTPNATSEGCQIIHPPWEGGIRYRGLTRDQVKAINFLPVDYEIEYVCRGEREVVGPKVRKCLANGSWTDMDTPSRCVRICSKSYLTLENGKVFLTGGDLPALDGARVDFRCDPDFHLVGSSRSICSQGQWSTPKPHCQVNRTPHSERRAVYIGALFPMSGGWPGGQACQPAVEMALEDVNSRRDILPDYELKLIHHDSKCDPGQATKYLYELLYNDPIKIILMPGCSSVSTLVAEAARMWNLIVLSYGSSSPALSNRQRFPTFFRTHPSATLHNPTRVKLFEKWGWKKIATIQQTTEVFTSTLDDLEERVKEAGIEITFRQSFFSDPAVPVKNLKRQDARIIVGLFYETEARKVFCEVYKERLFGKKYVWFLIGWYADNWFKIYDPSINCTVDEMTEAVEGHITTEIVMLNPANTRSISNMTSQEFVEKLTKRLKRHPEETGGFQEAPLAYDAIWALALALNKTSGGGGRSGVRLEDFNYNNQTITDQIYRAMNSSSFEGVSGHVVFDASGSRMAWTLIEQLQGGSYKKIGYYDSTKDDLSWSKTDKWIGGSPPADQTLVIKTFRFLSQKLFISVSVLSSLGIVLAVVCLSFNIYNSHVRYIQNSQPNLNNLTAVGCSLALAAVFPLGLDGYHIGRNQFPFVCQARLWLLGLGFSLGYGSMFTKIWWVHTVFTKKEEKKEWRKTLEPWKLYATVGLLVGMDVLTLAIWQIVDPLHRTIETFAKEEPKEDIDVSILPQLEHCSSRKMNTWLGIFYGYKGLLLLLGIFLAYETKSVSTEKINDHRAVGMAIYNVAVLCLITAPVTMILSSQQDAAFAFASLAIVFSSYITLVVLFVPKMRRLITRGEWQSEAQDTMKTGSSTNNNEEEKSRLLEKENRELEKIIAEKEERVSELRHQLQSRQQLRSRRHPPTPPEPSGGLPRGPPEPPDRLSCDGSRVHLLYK
T1 sequence (O75899 42-941 partner): as the sequence (O75899 42-941 partner) above

- EC50 [1]: < 700 nM
- EC50 [2]: < 100 nM
- GABAB receptor agonist or partial agonist activity (GABAB receptor): agonist or partial agonist activity
Compound: Cl.NC[C@H](CC(=O)O)c1ccc(Cl)c(OCc2ccncc2)c1 [Example 68, (3R)-4-Amino-3-[4-chloro-3-(4-pyridylmethoxy)phenyl]butanoic acid hydrochloride]
